The values that follow come from ChEMBL document CHEMBL1139308, “Identification and synthesis of 2,7-diamino-thiazolo[5,4-d]pyrimidine derivatives as TRPV1 antagonists” (Bioorg Med Chem Lett, 2009).

Series [1] has as its target Transient receptor potential cation channel subfamily V member 1 (Homo sapiens, UniProt Q8NER1). The experiment in a line: Antagonist activity at human TRPV1 expressed in HEK293 cells assessed as inhibition of capsaicin-induced calcium flux. The format is functional, cell-based. For orientation: Calcium assays in cells follow changes in intracellular calcium, usually with a dye or a luminescent sensor.

Series [2] concerns the target Transient receptor potential cation channel subfamily V member 1 (Rattus norvegicus, UniProt O35433). The experiment in a line: Antagonist activity at rat TRPV1 expressed in HEK293 cells assessed as inhibition of capsaicin-induced calcium flux. The format is functional, cell-based.
Series [3] is described as follows: Clearance in fasted Sprague-Dawley rat at 0.5 mg/kg, iv and 2 mg/kg, po. The format is ADME, organism-based. The following applies: in vivo.
Series [4] can be described thus: Volume of distribution at steady state in fasted Sprague-Dawley rat at 0.5 mg/kg, iv and 2 mg/kg, po. The format is ADME, organism-based. As to conditions: in vivo, read-out: Vdss.
Series [5] is described as follows: Half life in fasted Sprague-Dawley rat at 0.5 mg/kg, iv and 2 mg/kg, po. The format is ADME, organism-based. As to conditions: in vivo.
Series [6] can be described thus: Cmax in fasted Sprague-Dawley rat at 2 mg/kg, po. The format is ADME, organism-based. More on the design: dose 2 mg/kg, route oral. As to conditions: in vivo.
A short description of series [7]: Tmax in fasted Sprague-Dawley rat at 2 mg/kg, po. The format is ADME, organism-based. Further details: dose 2 mg/kg, route oral. As to conditions: in vivo.
Series [8] concerns Rattus norvegicus. The experiment in a line: AUC (infinity) in fasted Sprague-Dawley rat at 2 mg/kg, po. The format is ADME, organism-based, Plasma. More on the design: time infinity, dose 2 mg/kg, route oral. The following applies: in vivo.
The nature of series [9]: Bioavailability in fasted Sprague-Dawley rat at 0.5 mg/kg, iv and 2 mg/kg, po. The format is ADME, organism-based. The following applies: in vivo.
Series [10] is described as follows: Aqueous solubility in fasted-state simulated intestinal fluid at pH 6.8 after 3 days by HPLC. The format is physicochemical.
A short description of series [11]: Aqueous solubility in simulated gastric fluid at pH 1.2 after 3 days by HPLC. The format is physicochemical.

Values after ≈ are worked out from the molar mass of the structure shown.

Sequence of Transient receptor potential cation channel subfamily V member 1 (Rattus norvegicus, UniProt O35433) (O35433 whole entry): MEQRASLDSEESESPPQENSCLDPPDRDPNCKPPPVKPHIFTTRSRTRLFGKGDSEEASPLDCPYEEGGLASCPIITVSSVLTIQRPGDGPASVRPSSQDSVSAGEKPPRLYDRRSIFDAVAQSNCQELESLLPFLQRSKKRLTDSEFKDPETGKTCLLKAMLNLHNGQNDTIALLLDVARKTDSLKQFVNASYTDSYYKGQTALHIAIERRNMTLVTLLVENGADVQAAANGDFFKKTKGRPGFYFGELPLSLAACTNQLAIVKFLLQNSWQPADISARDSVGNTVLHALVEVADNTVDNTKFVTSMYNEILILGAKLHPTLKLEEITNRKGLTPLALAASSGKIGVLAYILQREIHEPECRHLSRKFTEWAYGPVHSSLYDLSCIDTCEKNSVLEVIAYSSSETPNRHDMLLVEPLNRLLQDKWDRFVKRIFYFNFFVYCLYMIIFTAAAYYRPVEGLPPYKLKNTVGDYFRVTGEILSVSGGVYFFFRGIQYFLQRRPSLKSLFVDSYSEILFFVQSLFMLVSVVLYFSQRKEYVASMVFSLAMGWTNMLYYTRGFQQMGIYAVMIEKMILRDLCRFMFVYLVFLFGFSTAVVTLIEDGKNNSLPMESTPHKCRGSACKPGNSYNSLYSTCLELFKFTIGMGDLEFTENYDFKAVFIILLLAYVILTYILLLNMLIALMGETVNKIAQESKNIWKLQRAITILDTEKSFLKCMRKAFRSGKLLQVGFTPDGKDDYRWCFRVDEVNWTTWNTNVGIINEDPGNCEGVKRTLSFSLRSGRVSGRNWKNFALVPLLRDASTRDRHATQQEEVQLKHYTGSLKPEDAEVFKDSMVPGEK
Sequence of Transient receptor potential cation channel subfamily V member 1 (Homo sapiens, UniProt Q8NER1) (Q8NER1 whole entry): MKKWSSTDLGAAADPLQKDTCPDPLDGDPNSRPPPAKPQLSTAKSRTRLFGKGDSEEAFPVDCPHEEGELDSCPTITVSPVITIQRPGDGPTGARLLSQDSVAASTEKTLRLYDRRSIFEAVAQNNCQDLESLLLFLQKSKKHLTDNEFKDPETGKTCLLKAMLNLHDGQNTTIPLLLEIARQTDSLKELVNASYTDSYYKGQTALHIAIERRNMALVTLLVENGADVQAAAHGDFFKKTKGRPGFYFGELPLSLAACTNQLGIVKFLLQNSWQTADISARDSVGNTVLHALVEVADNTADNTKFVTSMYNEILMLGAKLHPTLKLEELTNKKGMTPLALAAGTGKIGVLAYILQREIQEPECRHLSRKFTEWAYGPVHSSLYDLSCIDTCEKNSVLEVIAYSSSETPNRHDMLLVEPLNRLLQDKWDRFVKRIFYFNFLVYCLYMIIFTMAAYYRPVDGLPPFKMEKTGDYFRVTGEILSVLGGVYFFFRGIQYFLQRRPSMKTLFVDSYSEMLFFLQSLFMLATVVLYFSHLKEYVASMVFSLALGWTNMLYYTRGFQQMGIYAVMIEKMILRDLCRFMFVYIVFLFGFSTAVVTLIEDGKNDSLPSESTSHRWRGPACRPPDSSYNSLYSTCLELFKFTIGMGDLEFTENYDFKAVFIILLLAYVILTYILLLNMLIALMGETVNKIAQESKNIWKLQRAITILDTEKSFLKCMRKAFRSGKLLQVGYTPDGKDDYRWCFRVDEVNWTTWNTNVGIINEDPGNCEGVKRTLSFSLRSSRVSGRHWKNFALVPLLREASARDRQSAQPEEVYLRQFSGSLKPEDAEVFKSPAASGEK

By IC50 is commonly meant the concentration at which inhibition is half-maximal. Take `FC(F)(F)c1ccc(Nc2ncnc3sc(Nc4ccccc4)nc23)cc1`: in [1], the IC50 was more than 5000 nM.

Turning to `CSc1ccc(Nc2ncnc3sc(Nc4c(Cl)cccc4Cl)nc23)cc1`, the IC50 amounted to 96 nM in series [1] and 12 nM in series [2].

Turning to `CC(C)(C)c1ccc(Oc2ncnc3sc(Nc4c(Cl)cccc4Cl)nc23)cc1`, the IC50 in [1] and in series [2] was more than 5000 nM in each case.

For `Clc1cccc(Cl)c1Nc1nc2c(Nc3ccccc3)ncnc2s1`, the IC50 in series [1] turned out to be 176 nM; in series [2], 170 nM.

For the molecule `FC(F)(F)c1ccc(Nc2nc(-c3ccccc3)nc3sc(Nc4c(Cl)cccc4Cl)nc23)cc1`, the IC50 in series [1] is 539 nM; in series [2] it was 104 nM.

On to `NCc1cc(Cl)c(Nc2nc3c(Nc4ccc(C(F)(F)F)cc4)ncnc3s2)c(Cl)c1`, for which the values for the IC50 in [1] and in series [2] were 125 nM and 54 nM, respectively.

For `O=C(c1ccc(Nc2ncnc3sc(Nc4c(Cl)cccc4Cl)nc23)cc1)N1CCCC1`, the IC50 in [1] and in series [2] was more than 5000 nM in each case.

`FC(F)(F)c1ccccc1Nc1ncnc2sc(Nc3c(Cl)cccc3Cl)nc12`: the IC50 in [1] and in series [2] was more than 5000 nM throughout.

Take `CC(C)(C(=O)O)c1ccc(Nc2ncnc3sc(Nc4c(Cl)cccc4Cl)nc23)cc1`: the IC50 in series [1] was determined as 31 nM.

Turning to `CS(=O)(=O)c1nc(Nc2ccc(C(F)(F)F)cc2)c2nc(Nc3c(Cl)cccc3Cl)sc2n1`, the IC50 is 274 nM in series [1] and 77 nM in series [2].

As for `CS(=O)(=O)c1ccccc1Nc1nc2c(Nc3ccc(C(F)(F)F)cc3)ncnc2s1`, the IC50 in series [1] worked out at 234 nM; in series [2], 221 nM.

Regarding `FC(F)(F)c1cccc(Nc2ncnc3sc(Nc4c(Cl)cccc4Cl)nc23)c1`, the IC50 in series [1] is 206 nM; in series [2], 192 nM.

For the molecule `CN(c1nc2c(Nc3ccc(C(F)(F)F)cc3)ncnc2s1)c1c(Cl)cccc1Cl`, the IC50 is 502 nM in series [1] and 540 nM in series [2].

Regarding `FC(F)(F)c1ccc(Nc2ncnc3sc(Nc4ncccc4C(F)(F)F)nc23)cc1`, the IC50 in series [1] and in series [2] was more than 5000 nM throughout.

For the molecule `CC(C)N1CCN(c2nc(Nc3ccc(C(F)(F)F)cc3)c3nc(Nc4c(Cl)cccc4Cl)sc3n2)CC1`, the IC50 in [2] was determined as 119 nM.

On to `CC(C)c1ccc(Nc2ncnc3sc(Nc4c(Cl)cccc4Cl)nc23)cc1`, for which the IC50 came to 10 nM in series [1] and 3 nM in series [2].

With `NS(=O)(=O)c1ccc(Nc2ncnc3sc(Nc4c(Cl)cccc4Cl)nc23)cc1`, the IC50 in [1] is more than 5000 nM; in series [2] it was 590 nM.

Usually half-life stands for how long it takes for the measured level to halve. A word on the Cmax: it is the highest concentration seen after dosing. The Tmax is the time from dosing to the highest level. A word on the AUC: it is concentration integrated over time. As a reminder, the bioavailability is dose-corrected exposure relative to a reference, in per cent. Read a high bioavailability as good availability. For `OCc1cc(Cl)c(Nc2nc3c(Nc4ccc(C(F)(F)F)cc4)ncnc3s2)c(Cl)c1`, the IC50 in [2] is 0.5 nM. Also, in series [3], the clearance is 23.3 mL/min/kg. In series [4], the Vd is 2.9 L/kg. Further, in series [5], the half-life was 108 min. For the same molecule, the Cmax in [6] was determined as 200 nM. In addition, in series [7], the Tmax was found to be 4 h. For the same molecule, the AUC in [8] was determined as 638 ng·h/mL. For the same molecule, the bioavailability in series [9] came out at 45%.

For the molecule `FC(F)(F)c1ccc(Nc2nc(N3CCNCC3)nc3sc(Nc4c(Cl)cccc4Cl)nc23)cc1`, the IC50 in series [1] and in series [2] was more than 5000 nM in each case.

For `FC(F)(F)c1ccc(Nc2nc(N3CCOCC3)nc3sc(Nc4c(Cl)cccc4Cl)nc23)cc1`, the results for the IC50 in series [1] and in series [2] were 30 nM and 16 nM, respectively.

Take `Cc1ccccc1Nc1nc2c(Nc3ccc(C(F)(F)F)cc3)ncnc2s1`: the IC50 in series [1] stood at 51 nM; in [2], 14 nM.

Consider `CN(c1ccc(C(F)(F)F)cc1)c1ncnc2sc(Nc3c(Cl)cccc3Cl)nc12`, for which the values for the IC50 in series [1] and in series [2] were more than 5000 nM and more than 1000 nM, respectively.

Consider `FC(F)(F)c1ccc(Nc2ncnc3sc(Nc4ccccc4Cl)nc23)cc1`, for which the IC50 in series [1] came to 64 nM; in series [2] it was 32 nM.

With `O=S(=O)(c1ccc(Nc2ncnc3sc(Nc4c(Cl)cccc4Cl)nc23)cc1)N1CCCC1`, the IC50 in series [2] worked out at 0.5 nM.

With `CSc1nc(Nc2ccc(C(F)(F)F)cc2)c2nc(Nc3c(Cl)cccc3Cl)sc2n1`, the IC50 in series [1] stood at 224 nM; in series [2], 113 nM.

Regarding `CCN(CC)c1nc(Nc2ccc(C(F)(F)F)cc2)c2nc(Nc3c(Cl)cccc3Cl)sc2n1`, the IC50 in series [1] was found to be 48 nM; in series [2], 34 nM.

Turning to `CN(C)c1nc(Nc2ccc(C(F)(F)F)cc2)c2nc(Nc3c(Cl)cccc3Cl)sc2n1`, the IC50 in series [1] was found to be 59 nM; in series [2], 43 nM.

The solubility is how much of the substance goes into solution per volume. A lower solubility goes with a poorly soluble substance. With `FC(F)(F)c1ccc(Nc2nc(NCCN3CCOCC3)nc3sc(Nc4c(Cl)cccc4Cl)nc23)cc1`, the results for the IC50 in series [1] and in series [2] were 39 nM and 11 nM, respectively. The solubility at 72 h in [10] was 10 µg/mL (≈ 17.1 µM); in series [11], 116 µg/mL (≈ 198 µM). In series [3], the clearance was 30 mL/min/kg. In addition, in [4], the Vd came to 2.8 L/kg. For the same molecule, the half-life in [5] is 108 min. The peak level in series [6] (Cmax) was 70 nM. Also, in series [7], the time of peak concentration (Tmax) turned out to be 2 h. The AUC in series [8] amounted to 196 ng·h/mL. The same molecule returned a bioavailability in series [9] of 17%.

With `Cc1cccc(Cl)c1Nc1nc2c(Nc3ccc(C(F)(F)F)cc3)ncnc2s1`, the IC50 is 9 nM in series [1] and 1.6 nM in series [2].

On to `O=C(O)c1cc(Cl)c(Nc2nc3c(Nc4ccc(C(F)(F)F)cc4)ncnc3s2)c(Cl)c1`, for which the IC50 in [1] and in [2] was more than 5000 nM in each case.

As to `CC(C)Nc1nc(Nc2ccc(C(F)(F)F)cc2)c2nc(Nc3c(Cl)cccc3Cl)sc2n1`, the IC50 amounted to 13 nM in [1] and 9 nM in [2].

For the molecule `FC(F)(F)c1ccc(Nc2nc3c(Nc4ccc(C(F)(F)F)cc4)ncnc3s2)cc1`, in series [1], the 50% inhibitory concentration (IC50) was more than 5000 nM.

`FC(F)(F)c1ccc(Nc2ncnc3sc(Nc4ccccc4C(F)(F)F)nc23)cc1`: the results for the IC50 in [1] and in series [2] were 74 nM and 37 nM, respectively.

With `NC(=O)c1cc(Cl)c(Nc2nc3c(Nc4ccc(C(F)(F)F)cc4)ncnc3s2)c(Cl)c1`, the results for the IC50 in series [1] and in series [2] were 69 nM and 57 nM, respectively.

In the case of `CC(C)(C)c1ccc(Nc2ncnc3sc(Nc4c(Cl)cccc4Cl)nc23)cc1`, the IC50 in series [1] was determined as 11 nM.

With `CSc1ccccc1Nc1nc2c(Nc3ccc(C(F)(F)F)cc3)ncnc2s1`, the IC50 in series [1] was found to be 43 nM; in [2] it was 26 nM.

As to `O=C(O)c1ccc(Nc2ncnc3sc(Nc4c(Cl)cccc4Cl)nc23)cc1`, the IC50 in [1] and in [2] was more than 5000 nM in each case.

`Cc1cccc(C)c1Nc1nc2c(Nc3ccc(C(F)(F)F)cc3)ncnc2s1`: the IC50 in series [1] was found to be 23 nM.

Consider `FC(F)(F)c1ccc(Nc2ncnc3sc(Nc4c(Cl)cccc4Cl)nc23)cc1Cl`, for which the IC50 turned out to be 21 nM in series [1] and 9 nM in [2].

In the case of `FC(F)(F)c1ccc(Sc2ncnc3sc(Nc4c(Cl)cccc4Cl)nc23)cc1`, the IC50 in [1] and in [2] was more than 5000 nM throughout.

As to `FC(F)(F)c1ccc(Nc2nc(N3CCCC3)nc3sc(Nc4c(Cl)cccc4Cl)nc23)cc1`, the IC50 in series [1] came out at 12 nM; in series [2] it was 36 nM.

On to `FC(F)(F)c1ccc(Nc2cccc3sc(Nc4c(Cl)cccc4Cl)nc23)cc1`, for which the IC50 in series [1] and in series [2] was more than 5000 nM each time.

Regarding `FC(F)(F)c1ccc(Nc2nc(NCC3CC3)nc3sc(Nc4c(Cl)cccc4Cl)nc23)cc1`, the IC50 in series [1] and in series [2] was 3 nM each time.

For `FC(F)(F)c1ccc(Nc2ncnc3nc(Nc4c(Cl)cccc4Cl)sc23)cc1`, the 50% inhibitory concentration (IC50) in series [1] is 680 nM; in series [2] it was 864 nM.

Consider `Cc1nc(Nc2ccc(C(F)(F)F)cc2)c2nc(Nc3c(Cl)cccc3Cl)sc2n1`, for which the IC50 in series [2] stood at 2 nM.

Turning to `NC(=O)c1ccc(Nc2ncnc3sc(Nc4c(Cl)cccc4Cl)nc23)cc1`, the IC50 in [1] and in [2] was more than 5000 nM each time.

On to `Cc1ccc(Nc2ncnc3sc(Nc4c(Cl)cccc4Cl)nc23)cc1`, for which the IC50 in series [1] turned out to be 33 nM; in series [2], 32 nM.

As for `FC(F)(F)c1ccc(Nc2nc(N3CCC3)nc3sc(Nc4c(Cl)cccc4Cl)nc23)cc1`, the IC50 turned out to be 59 nM in series [1] and 25 nM in series [2].

For the molecule `N#Cc1cc(Cl)c(Nc2nc3c(Nc4ccc(C(F)(F)F)cc4)ncnc3s2)c(Cl)c1`, the IC50 in series [1] was found to be 95 nM; in series [2], 53 nM.

Turning to `FC(F)(F)c1ccc(Nc2ncnc3c2CCN(c2ncccc2C(F)(F)F)C3)cc1`, the IC50 was found to be 15 nM in [1] and 71 nM in series [2].

Take `FC(F)(F)c1ccc(Nc2ncnc3sc(Nc4cccc(C(F)(F)F)c4)nc23)cc1`: the IC50 in series [1] and in [2] was more than 5000 nM each time.

For the molecule `CS(=O)(=O)c1ccc(Nc2ncnc3sc(Nc4c(Cl)cccc4Cl)nc23)cc1`, the IC50 in series [1] came out at 5 nM; in series [2], 3 nM. Moreover, the clearance in series [3] was 60 mL/min/kg. Moreover, in series [4], the Vd came out at 2.2 L/kg. This molecule gave a half-life in series [5] of 72 min.
